According to US11395488B2, “Use of compositions comprising pelargonic acid and specific non ionic surfactants for inhibiting the growth of suckers on plants” (BELCHIM CROP PROTECTION NV, priority 2016, dated 2022):

What was measured:
[1] = tested on: suckers on tobacco plant; assay: Use of pelargonic acid for inhibiting the growth of suckers (Example 1, FIG. 1); type: in vivo, tobacco plant of the Burley variety; conditions: Burley tobacco; pelargonic acid applied at 0.5 g/l to 50.0 g/l; FIG. 1B
Text: To better exemplify reference is made to FIGS. 1A and 1B, which show a tobacco plant (100) of the Burley variety. […] It can be observed that at full floral development (i.e. ˜3 to 4 months) suckers (150) started to proliferate and grew into auxiliary stems.

[2] = tested on: suckers on tobacco plants; assay: Treatment of tobacco plants with pelargonic acid: sucker growth inhibition (Example 3); type: in vivo, tobacco plants of the Burley and Virginia; conditions: PA 3.4, 5.1, 6.8 g/l; V 450-460 l/ha; interval of 7 days between treatments; across all plants
Procedure: (§1) In an experimental embodiment tobacco plants of the Burley and Virginia were treated with a Volume (V) of 450-460l/ha with a composition comprising pelargonic acid (PA) at different concentrations (e.g., 3.4 g/l, 5.1 g/l and 6.8 g/l) with an interval of 7 days between treatments; the exact experimental details can be found in Table 1.

[3] = tested on: tobacco plants; assay: Treatment of tobacco plants with pelargonic acid: phytotoxicity (Example 3); type: in vivo, tobacco plants of the Burley and Virginia; conditions: PA 3.4, 5.1, 6.8 g/l; V 450-460 l/ha; interval of 7 days between treatments
Procedure: as §1

Q: Which results are given for `CCCCCCCCC(=O)O` [pelargonic acid]?
A: sucker growth [1]: fully inhibited; sucker growth inhibition [2]: > 90%; phytotoxicity or adverse ecological effects [3]: no phytotoxicity or adverse ecological effects were observed
